Source: PMC7311426, “An amphipathic peptide with antibiotic activity against multidrug-resistant Gram-negative bacteria” (Nature Communications, 2020)
Values after ≈ are worked out from the molar mass of the structure shown. Like-named read-outs stand apart in the source and are kept apart here. Residues, ends and D or L forms follow the SMILES beside them.

Tests used:
Test in all cases: microbe, parasite or virus in culture
[1] = test system: K. pneumoniae (#3010 & ST258); type: cell-based, Klebsiella pneumoniae
Description: (§1) The test media was cation-adjusted MHB (CAMHB, Becton Dickinson) supplemented with 2% Noble Agar (Becton Dickinson) and additionally for AA139 with 0.1% BSA. The agar dilution MIC values were determined as recommended by Clinical and Laboratory Standards Institute (CLSI)[47]. […] The inoculum for the spontaneous mutation plates targeted 10^9 to 10^10 colony-forming units (CFU) per plate. The viable count of each suspension was determined by plating serial ten-fold dilutions onto MHB/NA in duplicate. In addition, agar plates without drug were inoculated as positive controls. Plates were inspected for growth at both 24 and 48 h. Colony counts were determined manually. Using the counts at 48 h, the spontaneous mutation frequency was calculated using the following equation: (average number of colonies from duplicate selection plates)/(total number of cells inoculated onto each plate). If there were no colonies on the antibiotic selection plates, the spontaneous mutation frequency was reported as less than the frequency observed with one colony to indicate that the spontaneous mutation frequency was less than the limit of detection (one CFU).

[2] = test system: E. coli (AID#172 & ATCC 25922); type: cell-based, Escherichia coli; conditions: for MIC: Escherichia coli
Description: as §1

L. monocytogenes = test system: L. monocytogenes
Summary of the method: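 MICs were scored by eye after 18-20 h static incubation at 37 °C, with bacteria at 5 × 10^5 CFU mL^−1 in MHB. Peptides were serially diluted 2-fold over 12 points, top 128 or 64 μg mL^−1. CAMHB (CLSI) and 1% agarose-MHB variants were also run, at least six replicates.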

K. pneumoniae = type: cell-based, Klebsiella pneumoniae; conditions: n=2 to 6, mode or median
P. aeruginosa = type: cell-based, Pseudomonas aeruginosa; conditions: P. aeruginosa FADDI-070 MDR, PmxR; n=2 to 6, mode or median

Compound	MIC ([1]; Klebsiella pneumoniae, read-out: Agar (Noble) Dilution MIC, K. pneumoniae ST258) [µg/mL]	MIC ([2]; ATCC25922, read-out: Agar (Noble) Dilution MIC, E. coli ATCC 25922) [µg/mL]	MIC ([2]; ATCC25922, read-out: Agar (Noble) Dilution MIC, E. coli AUD172) [µg/mL]	BMD MIC (L. monocytogenes) [µg/mL]	MIC, Serum (50%) (K. pneumoniae; K. pneumoniae ATCC 700603 ESBL, OXA-2/SHV-18) [µg/mL]	MIC, Survanta (5%) (K. pneumoniae; K. pneumoniae BAA-2146 NDM-1) [µg/mL]	MIC, Serum (50%) (P. aeruginosa) [µg/mL]	MIC, Survanta (5%) (P. aeruginosa) [µg/mL]	Agar (Noble) Dilution MIC ([1]; K. pneumoniae 3010) [µg/mL]	Agar (Noble) Dilution MIC ([1]; K. pneumoniae ST258) [µg/mL]	Agar (Noble) Dilution MIC ([2]; E. coli ATCC 25922) [µg/mL]	Agar (Noble) Dilution MIC ([2]; E. coli AUD172) [µg/mL]
C[C@H]1COc2c(N3CCN(C)CC3)c(F)cc3c(=O)c(C(=O)O)cn1c23 [LEV, levofloxacin, reference compound]	> 8	0.03 (≈ 0.083 µM)	8 (≈ 22.1 µM)	–	–	–	–	–	–	–	–	–
CC(C)[C@@H]1NC(=O)[C@H](Cc2ccc(O)cc2)NC(=O)[C@H](Cc2c[nH]c3ccccc23)NC(=O)[C@@H](NC(=O)[C@H](Cc2ccccc2)NC(=O)CN)CSSC[C@@H](C(=O)N[C@@H](CC(N)=O)C(=O)O)NC(=O)[C@H](CCCNC(=N)N)NC(=O)[C@H](CCCNC(=N)N)NC(=O)[C@H](Cc2ccc(O)cc2)NC(=O)[C@@H]2CSSC[C@H](NC1=O)C(=O)N[C@@H](C)C(=O)N[C@@H](CCCNC(=N)N)C(=O)N[C@@H](CCCNC(=N)N)C(=O)N[C@@H](CC(N)=O)C(=O)NCC(=O)N[C@@H](C)C(=O)N[C@@H](CCCNC(=N)N)C(=O)N[C@@H](C(C)C)C(=O)N2 [AA139] (HELM PEPTIDE1{G.F.C.W.Y.V.C.A.R.R.N.G.A.R.V.C.Y.R.R.C.N}$PEPTIDE1,PEPTIDE1,3:R3-20:R3|PEPTIDE1,PEPTIDE1,7:R3-16:R3$$$V2.0)	–	–	–	2	8 (≈ 3.14 µM)	2 (≈ 0.784 µM)	8 (≈ 3.14 µM)	8 (≈ 3.14 µM)	16	16	8	8
